Consider 19 compounds from ChEMBL document CHEMBL1909046, “DrugMatrix in vitro pharmacology data”.

Assay [1] concerns the target Beta-1 adrenergic receptor (Homo sapiens, UniProt P08588). As to the kind of experiment: DRUGMATRIX: Adrenergic beta1 radioligand binding (ligand: [125I] Cyanopindolol). The format is cell membranes, CHO-K1, Membrane. Conditions: cho-k1; Not Active = under 50% inhibition at 10 µM.
The target in assay [2] is Beta-2 adrenergic receptor (Homo sapiens, UniProt P07550). As to the kind of experiment: DRUGMATRIX: Adrenergic beta2 radioligand binding (ligand: [3H] CGP-12177). The format is cell membranes, Membrane. Conditions: cho; Not Active = under 50% inhibition at 10 µM.
Another assay has as its target T1, Calcitonin receptor (Homo sapiens, UniProt P30988). Also: in other assays of this panel Not Active means under 50% inhibition at 10 µM.
T1 sequence (P30988 whole entry): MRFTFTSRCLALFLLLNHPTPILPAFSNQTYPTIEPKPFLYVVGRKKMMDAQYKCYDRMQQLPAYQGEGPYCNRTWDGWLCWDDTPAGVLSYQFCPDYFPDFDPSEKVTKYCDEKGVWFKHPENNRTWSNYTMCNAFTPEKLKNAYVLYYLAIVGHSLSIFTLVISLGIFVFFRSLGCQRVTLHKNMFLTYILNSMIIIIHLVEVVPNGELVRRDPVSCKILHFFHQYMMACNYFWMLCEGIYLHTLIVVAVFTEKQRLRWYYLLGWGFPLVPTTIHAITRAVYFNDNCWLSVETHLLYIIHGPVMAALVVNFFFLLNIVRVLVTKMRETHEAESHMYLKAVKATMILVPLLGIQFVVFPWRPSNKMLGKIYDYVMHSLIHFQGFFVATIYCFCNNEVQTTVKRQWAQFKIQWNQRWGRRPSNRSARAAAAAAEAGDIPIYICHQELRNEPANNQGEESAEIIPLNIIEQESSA
The format is cell membranes, Membrane. As to conditions: t47d.

The next assay addresses T2, Substance-K receptor (Homo sapiens, UniProt P21452).
T2 sequence (P21452 whole entry): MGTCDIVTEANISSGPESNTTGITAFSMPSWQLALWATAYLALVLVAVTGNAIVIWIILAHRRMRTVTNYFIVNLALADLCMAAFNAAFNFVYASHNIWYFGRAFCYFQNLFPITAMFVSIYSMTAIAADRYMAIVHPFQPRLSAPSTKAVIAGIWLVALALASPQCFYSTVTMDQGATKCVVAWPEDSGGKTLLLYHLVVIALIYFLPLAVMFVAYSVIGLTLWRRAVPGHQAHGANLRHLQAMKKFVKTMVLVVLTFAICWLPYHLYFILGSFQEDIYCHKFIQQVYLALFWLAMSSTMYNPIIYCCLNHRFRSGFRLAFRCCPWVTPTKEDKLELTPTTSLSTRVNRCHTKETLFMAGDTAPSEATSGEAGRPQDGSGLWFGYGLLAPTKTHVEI
In kind it is cell membranes, CHO, Membrane. Conditions: cho.

The target of assay [3] is Vascular endothelial growth factor receptor 1 (Homo sapiens, UniProt P17948). In kind it is cell-based. Conditions: huvec. Also: in other assays of this panel Not Active means under 50% inhibition at 10 µM.
Assay [4] deals with Prostaglandin G/H synthase 1 (Homo sapiens, UniProt P23219). The assay can be described thus: biochemical. The format is tissue-based, Platelet. As to conditions: platelet.
Assay [5] addresses Protein kinase C alpha type (Homo sapiens, UniProt P17252). The format is cell-based. Conditions: sf9.
Assay [6] addresses Receptor tyrosine-protein kinase erbB-2 (Homo sapiens, UniProt P04626). As to the kind of experiment: biochemical. The format is cell-based, Insect cells.

The structures appear in SMILES notation.

Chain of Vascular endothelial growth factor receptor 1 (P17948 whole entry): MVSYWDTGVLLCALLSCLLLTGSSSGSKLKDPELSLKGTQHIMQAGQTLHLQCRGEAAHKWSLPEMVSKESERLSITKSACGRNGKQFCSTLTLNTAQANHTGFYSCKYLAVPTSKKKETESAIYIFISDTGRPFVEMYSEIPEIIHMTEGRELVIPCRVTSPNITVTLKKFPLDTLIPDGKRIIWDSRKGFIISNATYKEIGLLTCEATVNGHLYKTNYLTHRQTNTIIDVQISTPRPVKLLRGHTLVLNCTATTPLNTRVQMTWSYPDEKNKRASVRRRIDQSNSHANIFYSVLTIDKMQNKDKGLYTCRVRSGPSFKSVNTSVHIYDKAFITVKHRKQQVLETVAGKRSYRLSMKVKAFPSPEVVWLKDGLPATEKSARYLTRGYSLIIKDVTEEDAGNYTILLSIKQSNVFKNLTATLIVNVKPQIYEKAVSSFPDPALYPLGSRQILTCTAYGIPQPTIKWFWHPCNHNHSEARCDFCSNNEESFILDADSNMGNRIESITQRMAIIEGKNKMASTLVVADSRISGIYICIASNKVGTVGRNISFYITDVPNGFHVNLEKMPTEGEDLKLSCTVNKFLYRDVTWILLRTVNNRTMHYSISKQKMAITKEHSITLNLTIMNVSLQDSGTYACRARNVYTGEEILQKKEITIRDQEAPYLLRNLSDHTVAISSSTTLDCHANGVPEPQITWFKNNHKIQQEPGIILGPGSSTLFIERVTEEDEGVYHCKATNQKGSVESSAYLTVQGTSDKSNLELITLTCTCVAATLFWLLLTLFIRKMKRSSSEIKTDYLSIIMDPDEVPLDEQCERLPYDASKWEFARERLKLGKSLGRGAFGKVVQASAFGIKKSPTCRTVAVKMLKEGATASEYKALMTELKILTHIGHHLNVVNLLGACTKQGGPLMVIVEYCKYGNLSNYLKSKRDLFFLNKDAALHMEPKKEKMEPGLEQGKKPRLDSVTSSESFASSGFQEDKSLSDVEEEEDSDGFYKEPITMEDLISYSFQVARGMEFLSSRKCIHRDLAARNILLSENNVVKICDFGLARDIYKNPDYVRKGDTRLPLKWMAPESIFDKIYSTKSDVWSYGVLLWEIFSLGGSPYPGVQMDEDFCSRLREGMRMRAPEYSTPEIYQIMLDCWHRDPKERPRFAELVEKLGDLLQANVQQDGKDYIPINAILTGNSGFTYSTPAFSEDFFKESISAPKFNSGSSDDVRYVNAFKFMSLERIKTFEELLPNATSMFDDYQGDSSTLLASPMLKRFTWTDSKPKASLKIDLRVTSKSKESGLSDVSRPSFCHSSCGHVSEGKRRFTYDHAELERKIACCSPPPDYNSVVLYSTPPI
Chain of Receptor tyrosine-protein kinase erbB-2 (P04626 whole entry): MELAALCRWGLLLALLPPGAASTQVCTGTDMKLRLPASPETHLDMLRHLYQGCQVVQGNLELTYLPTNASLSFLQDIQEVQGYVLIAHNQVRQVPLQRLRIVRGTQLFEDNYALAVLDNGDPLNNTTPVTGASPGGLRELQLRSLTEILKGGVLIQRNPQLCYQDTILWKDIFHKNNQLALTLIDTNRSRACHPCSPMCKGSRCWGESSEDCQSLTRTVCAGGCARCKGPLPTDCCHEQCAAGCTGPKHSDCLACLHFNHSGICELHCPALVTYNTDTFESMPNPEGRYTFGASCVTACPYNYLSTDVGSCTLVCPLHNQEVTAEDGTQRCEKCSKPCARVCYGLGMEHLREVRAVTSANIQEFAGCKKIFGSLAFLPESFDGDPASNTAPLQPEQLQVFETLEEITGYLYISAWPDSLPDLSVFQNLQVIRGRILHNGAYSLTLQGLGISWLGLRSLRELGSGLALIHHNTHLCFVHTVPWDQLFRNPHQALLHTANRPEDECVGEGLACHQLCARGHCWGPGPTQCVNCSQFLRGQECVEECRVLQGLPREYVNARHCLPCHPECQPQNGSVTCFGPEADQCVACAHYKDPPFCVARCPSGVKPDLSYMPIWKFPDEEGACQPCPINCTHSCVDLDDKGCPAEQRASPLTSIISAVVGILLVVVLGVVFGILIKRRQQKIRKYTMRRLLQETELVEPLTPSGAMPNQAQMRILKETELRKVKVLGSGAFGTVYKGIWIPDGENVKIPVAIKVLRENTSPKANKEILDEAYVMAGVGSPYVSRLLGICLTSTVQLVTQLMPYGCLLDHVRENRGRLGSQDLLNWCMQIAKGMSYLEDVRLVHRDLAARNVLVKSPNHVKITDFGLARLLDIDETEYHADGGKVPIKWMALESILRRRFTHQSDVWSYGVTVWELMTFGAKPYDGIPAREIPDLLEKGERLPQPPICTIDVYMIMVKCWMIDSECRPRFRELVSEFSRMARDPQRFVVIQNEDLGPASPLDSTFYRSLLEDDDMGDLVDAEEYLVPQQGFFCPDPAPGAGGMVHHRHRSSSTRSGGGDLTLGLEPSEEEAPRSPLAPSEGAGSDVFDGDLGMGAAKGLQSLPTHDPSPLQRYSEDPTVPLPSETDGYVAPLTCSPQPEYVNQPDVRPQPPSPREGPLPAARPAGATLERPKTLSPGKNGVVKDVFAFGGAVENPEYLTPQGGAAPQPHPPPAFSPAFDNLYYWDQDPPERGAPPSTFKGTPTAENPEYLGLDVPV
Chain of Beta-2 adrenergic receptor (P07550 whole entry): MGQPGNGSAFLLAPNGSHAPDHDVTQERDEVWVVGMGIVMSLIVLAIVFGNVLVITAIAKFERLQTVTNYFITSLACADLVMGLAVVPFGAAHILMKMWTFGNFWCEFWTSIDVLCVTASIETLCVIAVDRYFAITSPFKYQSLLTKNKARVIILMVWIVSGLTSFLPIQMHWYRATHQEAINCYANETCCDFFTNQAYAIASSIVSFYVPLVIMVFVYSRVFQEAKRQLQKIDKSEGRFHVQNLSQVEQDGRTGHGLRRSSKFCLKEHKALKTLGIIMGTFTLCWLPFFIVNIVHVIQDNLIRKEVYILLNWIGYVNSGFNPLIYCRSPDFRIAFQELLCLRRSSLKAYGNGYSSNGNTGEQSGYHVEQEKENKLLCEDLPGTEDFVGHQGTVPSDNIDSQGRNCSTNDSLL
Chain of Beta-1 adrenergic receptor (P08588 whole entry): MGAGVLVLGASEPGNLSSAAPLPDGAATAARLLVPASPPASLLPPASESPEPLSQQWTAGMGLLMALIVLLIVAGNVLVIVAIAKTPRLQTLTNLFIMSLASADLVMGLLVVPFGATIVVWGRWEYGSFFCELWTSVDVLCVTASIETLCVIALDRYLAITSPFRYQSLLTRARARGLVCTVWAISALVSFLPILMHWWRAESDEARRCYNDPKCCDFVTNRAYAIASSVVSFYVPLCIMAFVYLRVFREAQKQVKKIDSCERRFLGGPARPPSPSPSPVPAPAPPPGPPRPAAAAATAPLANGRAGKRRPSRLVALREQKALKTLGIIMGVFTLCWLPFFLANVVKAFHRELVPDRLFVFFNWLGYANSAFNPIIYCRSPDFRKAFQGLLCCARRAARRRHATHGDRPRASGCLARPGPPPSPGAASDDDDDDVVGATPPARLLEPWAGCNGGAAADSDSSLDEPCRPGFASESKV
Chain of Prostaglandin G/H synthase 1 (P23219 whole entry): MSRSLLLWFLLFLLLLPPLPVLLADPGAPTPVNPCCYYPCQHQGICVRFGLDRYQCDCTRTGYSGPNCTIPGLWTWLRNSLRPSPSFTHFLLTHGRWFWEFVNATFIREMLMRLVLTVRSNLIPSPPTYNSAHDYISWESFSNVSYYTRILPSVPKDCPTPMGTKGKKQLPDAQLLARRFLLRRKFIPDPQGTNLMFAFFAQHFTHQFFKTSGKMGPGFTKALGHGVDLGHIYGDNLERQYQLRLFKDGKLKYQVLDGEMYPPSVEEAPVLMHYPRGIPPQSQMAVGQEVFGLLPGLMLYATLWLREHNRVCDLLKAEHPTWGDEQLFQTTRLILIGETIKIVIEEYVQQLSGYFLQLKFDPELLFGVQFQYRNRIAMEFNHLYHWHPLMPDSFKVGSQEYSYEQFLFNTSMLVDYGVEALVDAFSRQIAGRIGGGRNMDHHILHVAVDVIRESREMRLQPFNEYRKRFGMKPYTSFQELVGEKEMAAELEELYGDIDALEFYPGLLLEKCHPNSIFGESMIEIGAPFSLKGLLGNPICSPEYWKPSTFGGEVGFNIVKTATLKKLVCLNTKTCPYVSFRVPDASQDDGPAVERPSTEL

On to `C[C@H]1O[C@@H](O[C@H]2[C@@H](O)C[C@H](O[C@H]3[C@@H](O)C[C@H](O[C@H]4CC[C@@]5(C)[C@H](CC[C@@H]6[C@@H]5CC[C@]5(C)[C@@H](C7=CC(=O)OC7)CC[C@]65O)C4)O[C@@H]3C)O[C@@H]2C)C[C@H](O)[C@@H]1O` [DIGITOXIN], for which the half-inhibitory concentration (IC50) entry (in assay [1]; in assay [2]; at Calcitonin receptor; against Substance-K receptor; in assay [3]; in assay [4]) was “Not Active” each time. Further, the half-maximal inhibitory concentration (IC50) entry in assay [5] and in assay [6] (insect cells) was “Not Active” throughout.
With `CCN1CC(CCN2CCOCC2)C(c2ccccc2)(c2ccccc2)C1=O` (configuration not stated) [DOXAPRAM], the IC50 entry (in assay [1]; in assay [2]; at Calcitonin receptor; at Substance-K receptor; in assay [3]; in assay [4]) was “Not Active” each time. In addition, the half-inhibitory concentration (IC50) result in assay [5] and in assay [6] (insect cells) was “Not Active” throughout.
For `Cn1c(=O)c2c(ncn2CC2OCCO2)n(C)c1=O` [DOXOFYLLINE], the IC50 entry (in assay [1]; in assay [2]; on Calcitonin receptor; on Substance-K receptor; in assay [3]; in assay [4]) was “Not Active” throughout. Besides, the IC50 entry in assay [5] and in assay [6] (insect cells) was “Not Active” in each case.
`COc1cccc2c1C(=O)c1c(O)c3c(c(O)c1C2=O)C[C@@](O)(C(=O)CO)C[C@@H]3O[C@H]1C[C@H](N)[C@H](O)[C@H](C)O1` [DOXORUBICIN]: the half-inhibitory concentration (IC50) entry (in assay [1]; in assay [2]; on Calcitonin receptor; at Substance-K receptor; in assay [3]; in assay [4]) was “Not Active” in each case. In addition, the results for the IC50 result in assay [5] and in assay [6] (read-out: IC50) were “Not Active” and 2490 nM, respectively.
As to `COc1cccc2c1C(=O)c1c(O)c3c(c(O)c1C2=O)C[C@@](O)(C(=O)CO)C[C@@H]3O[C@H]1C[C@H](N)[C@@H](O)[C@H](C)O1` [EPIRUBICIN], the IC50 entry (in assay [1]; in assay [2]; on Calcitonin receptor; on Substance-K receptor; in assay [3]; in assay [4]) was “Not Active” in each case. Also, the 50% inhibitory concentration (IC50) result in assay [5] and in assay [6] (insect cells) was “Not Active” each time.
On to `C[C@]12CC[C@@H]3c4ccc(OC(=O)c5ccccc5)cc4CC[C@H]3[C@@H]1CC[C@@H]2O` [ESTRADIOL BENZOATE], for which the IC50 result (in assay [1]; in assay [2]; at Calcitonin receptor; at Substance-K receptor; in assay [3]; in assay [4]) was “Not Active” each time. Also, the half-maximal inhibitory concentration (IC50) entry in assay [5] and in assay [6] (insect cells) was “Not Active” in each case.
As to `C[C@]12CC[C@@H]3c4ccc(O)cc4CC[C@H]3[C@@H]1CC[C@@H]2O` [ESTRADIOL], the IC50 entry (in assay [1]; in assay [2]; at Calcitonin receptor; against Substance-K receptor; in assay [3]; in assay [4]) was “Not Active” throughout. Besides, the IC50 result in assay [5] and in assay [6] (insect cells) was “Not Active” throughout.
Turning to `CC[C@@H](CO)NCCN[C@@H](CC)CO` [ETHAMBUTOL], the IC50 entry (in assay [1]; in assay [2]; on Calcitonin receptor; on Substance-K receptor; in assay [3]; in assay [4]) was “Not Active” in each case. For the same compound, the half-inhibitory concentration (IC50) result in assay [5] and in assay [6] (insect cells) was “Not Active” throughout.
For the compound `CC1(C)O[C@@H]2C[C@H]3[C@@H]4C[C@H](F)C5=CC(=O)C=C[C@]5(C)[C@H]4[C@@H](O)C[C@]3(C)[C@]2(C(=O)CO)O1` [FLUNISOLIDE], the IC50 entry (in assay [1]; in assay [2]; at Calcitonin receptor; against Substance-K receptor; in assay [3]; in assay [4]) was “Not Active” throughout. Moreover, the IC50 entry in assay [5] and in assay [6] (insect cells) was “Not Active” in each case.
Regarding `CC1(C)O[C@@H]2C[C@H]3[C@@H]4C[C@H](F)C5=CC(=O)C=C[C@]5(C)[C@@]4(F)[C@@H](O)C[C@]3(C)[C@]2(C(=O)CO)O1` [FLUOCINOLONE ACETONIDE], the IC50 entry (in assay [1]; in assay [2]; on Calcitonin receptor; on Substance-K receptor; in assay [3]; in assay [4]) was “Not Active” throughout. The IC50 result in assay [5] and in assay [6] (insect cells) was “Not Active” in each case.
In the case of `CC1(C)O[C@@H]2C[C@H]3[C@@H]4C[C@H](F)C5=CC(=O)CC[C@]5(C)[C@H]4[C@@H](O)C[C@]3(C)[C@]2(C(=O)CO)O1` [FLURANDRENOLIDE], the IC50 entry (in assay [1]; in assay [2]; on Calcitonin receptor; on Substance-K receptor; in assay [3]; in assay [4]) was “Not Active” throughout. Further, the IC50 result in assay [5] and in assay [6] (insect cells) was “Not Active” throughout.
On to `Cc1ccc(S(=O)(=O)NC(=O)NN2CC3CCCC3C2)cc1` (configuration not stated) [GLICLAZIDE], for which the IC50 entry (in assay [1]; in assay [2]; at Calcitonin receptor; against Substance-K receptor; in assay [3]; in assay [4]) was “Not Active” in each case. Moreover, the IC50 result in assay [5] and in assay [6] (insect cells) was “Not Active” each time.
In the case of `NC(=O)NO` [HYDROXYUREA], the IC50 result (in assay [1]; in assay [2]; at Calcitonin receptor; at Substance-K receptor; in assay [3]; in assay [4]) was “Not Active” each time. The IC50 entry in assay [5] and in assay [6] (insect cells) was “Not Active” throughout.
For `CCc1c2c(nc3ccc(OC(=O)N4CCC(N5CCCCC5)CC4)cc13)-c1cc3c(c(=O)n1C2)COC(=O)[C@]3(O)CC` [IRINOTECAN], the IC50 result (in assay [1]; in assay [2]; on Calcitonin receptor; at Substance-K receptor; in assay [3]; in assay [4]) was “Not Active” throughout. Besides, the IC50 entry in assay [5] and in assay [6] (insect cells) was “Not Active” in each case.
Turning to `Nc1ccn([C@@H]2CS[C@H](CO)O2)c(=O)n1` [LAMIVUDINE], the IC50 entry (in assay [1]; in assay [2]; on Calcitonin receptor; against Substance-K receptor; in assay [3]; in assay [4]) was “Not Active” each time. The IC50 result in assay [5] and in assay [6] (insect cells) was “Not Active” throughout.
As to `O=S(=O)([O-])CCS.[Na+]` [MESNA], the IC50 result (in assay [1]; in assay [2]; at Calcitonin receptor; against Substance-K receptor; in assay [3]; in assay [4]) was “Not Active” in each case. In addition, the IC50 entry in assay [5] and in assay [6] (insect cells) was “Not Active” throughout.
Take `C#C[C@]1(O)CC[C@H]2[C@@H]3CCc4cc(OC)ccc4[C@H]3CC[C@@]21C` [MESTRANOL]: the IC50 result (in assay [1]; in assay [2]; on Calcitonin receptor; against Substance-K receptor; in assay [3]; in assay [4]) was “Not Active” throughout. For the same compound, the IC50 result in assay [5] and in assay [6] (insect cells) was “Not Active” each time.
Turning to `CC(=O)Nc1cccc(O)c1` [METACETAMOL], the half-maximal inhibitory concentration (IC50) entry (in assay [1]; in assay [2]; at Calcitonin receptor; on Substance-K receptor; in assay [3]; in assay [4]) was “Not Active” in each case. Also, the IC50 result in assay [5] and in assay [6] (insect cells) was “Not Active” each time.
Turning to `Cc1ncc([N+](=O)[O-])n1CCO` [METRONIDAZOLE], the IC50 result (in assay [1]; in assay [2]; on Calcitonin receptor; on Substance-K receptor; in assay [3]; in assay [4]) was “Not Active” each time. For the same compound, the IC50 result in assay [5] and in assay [6] (insect cells) was “Not Active” throughout.
